# Reference: patent publication US8633164B2, “Antimicrobial peptides” (priority 2008, dated 2014)
# No end group written: not given here.
# Tested on: LPS-induced cytokine expression in human mononuclear cells
# Experiment: Inhibition of LPS-induced cytokine secretion of human mononuclear cells
# Type: cell-based
# Conditions: comparison of Pep12, 17-1 and 19-1
# Description: Human mononuclear cells (MNC): heparinized (20 IU/ml) blood obtained from healthy donors was mixed with an equal volume of Hank's balanced solution, layered over Ficoll, and centrifuged for 40 min (21° C., 500 g). The interphase layer of MNC was collected and washed twice in Hank's medium and then resuspended in RPMI 1640 supplemented with 2 mM L-glutamine, 100 U/ml penicillin, and 100 μg/ml streptomycin. MNC (200 μl/well; 5×10^6 cells/ml) were transferred into 96-well culture plates. Twenty microliters of a mixture containing LPS (100 ng/ml or 10 ng/ml) and Gra-pep (10:1 weight % excess) was added to each well. Supernatants were harvested after 4 h incubation at 37° C. under 5% CO2, and TNFα production was measured in a sandwich-ELISA. TNFα was determined in duplicate at two different dilutions and the values from two independent experiments were averaged.
sequence,measurement,value
GCKKFRRLKWKYKGKFWFWCG (GCKKFRRLKWKYKGKFWFWCG-NH2; cysteine pairing not given here) [Pep 19-1],Inhibition of LPS-induced cytokine production,inhibits most strongly
